# Test results published in patent publication US8569336B2, “Compounds for the treatment of inflammatory disorders” (priority 2008, dated 2013).
# Read-outs that look alike come from different tables or passages of the source.
# What was measured:
# [1] = molecular target: T1, purified catalytic domain of recombinant human TACE (rhTACEc) (Homo sapiens, UniProt P78536, N452Q/S266A); experiment: TACE kinetic assay: cleavage of internally quenched peptide substrate TNF-FRET 2 (Ki); assay type: biochemical; details: TNF-FRET 2 substrate
# T1 construct: 6xHis (C); made in house; host or cells: baculovirus/Hi5 insect cells
# [2] = system: TNF-α production from human whole blood; experiment: Inhibition of TNF-α production from human whole blood (hWBA), LPS stimulated, ELISA; assay type: cell-based; details: Homo sapiens
# [3] = LPS-stimulated human whole blood, TNF-α by ELISA, read-out: hWBA (IC50)
# [4] = human whole blood diluted 1:1, LPS stimulated, TNF-α by ELISA, read-out: hWBA (IC50)
# T1 sequence (P78536 215-477 S266A/N452Q): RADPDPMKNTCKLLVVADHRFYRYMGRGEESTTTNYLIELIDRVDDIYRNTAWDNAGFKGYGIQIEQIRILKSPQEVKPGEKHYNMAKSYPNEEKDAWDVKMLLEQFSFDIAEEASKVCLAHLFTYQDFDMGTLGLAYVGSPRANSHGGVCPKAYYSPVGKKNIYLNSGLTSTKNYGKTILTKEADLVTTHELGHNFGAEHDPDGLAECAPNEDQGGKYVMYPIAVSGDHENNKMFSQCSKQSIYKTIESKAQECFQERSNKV
Compound,Ki ([1]; read-out: Ki) [nM],"IC50 [2, 3] [µM]",other results
COc1cc2c(cc1OC)C(=O)N(C[C@@]1(c3cc4cnccc4o3)NC(=O)NC1=O)C2 [Compound 200],7.23,≥ 10,–
COc1cc2c(cc1OC)C(=O)N(C[C@]1(c3cc4cnccc4o3)NC(=O)NC1=O)C2 [Compound 201],149,6.66,–
COc1ccc2c(c1F)C(=O)N(C[C@@]1(c3cc4c(C)nc(C)cc4o3)NC(=O)NC1=O)C2 [Compound 202],0.568,0.553,–
COc1ccc2c(c1F)C(=O)N(C[C@@]1(c3cc4cc(C)nc(C)c4o3)NC(=O)NC1=O)C2 [Compound 203],0.0608,0.943,–
COc1ccc2c(c1)C(=O)N(C[C@@]1(c3cc4cc(C)nc(C)c4o3)NC(=O)NC1=O)C2 [Compound 204],0.667,4.09,–
COc1ccc2c(c1F)C(=O)N(C[C@@]1(c3cc4cc(-c5cc(=O)[nH]c(N)n5)ccc4o3)NC(=O)NC1=O)C2 [Compound 300],0.538,0.364,–
COc1ccc2c(c1)C(=O)N(C[C@@]1(c3cc4cc(C5CCNCC5)ncc4o3)NC(=O)NC1=O)C2 [Compound 301],1.04,0.162,–
COc1ccc2c(c1)C(=O)N(C[C@@]1(c3cc4cc(-c5cc(O)nc(N)n5)cnc4o3)NC(=O)NC1=O)C2 [Compound 302],0.53,0.151,–
COc1ccc2c(c1F)C(=O)N(C[C@@]1(c3cc4cncnc4o3)NC(=O)NC1=O)C2 [Compound 303],1.57,0.198,–
COc1ccc2c(c1F)C(=O)N(C[C@@]1(c3cc4cnc(C)nc4o3)NC(=O)NC1=O)C2 [Compound 304],1.23,0.3,–
COc1ccc2c(c1)C(=O)N(C[C@@]1(c3cc4cc(N5CCNC5=O)ncc4o3)NC(=O)NC1=O)C2 [Compound 307],–,0.529,–
CCN1CCN(c2cc3cc([C@]4(CN5Cc6ccc(OC)cc6C5=O)NC(=O)NC4=O)oc3cn2)CC1 [Compound 308],–,0.343,–
COc1ccc2c(c1F)C(=O)N(C[C@]1(c3ccco3)NC(=O)NC1=O)C2 [Compound 312],501,–,–
CCOC(=O)NCc1ccc2oc([C@]3(CN4Cc5ccc(OC)cc5C4=O)NC(=O)NC3=O)cc2c1 [Compound 324],–,1.69,–
CCNC(=O)NCc1ccc2oc([C@]3(CN4Cc5ccc(OC)cc5C4=O)NC(=O)NC3=O)cc2c1 [Compound 325],–,1.99,–
COc1ccc2c(c1)C(=O)N(C[C@@]1(c3cc4cc(CNC(=O)N(C)C)ccc4o3)NC(=O)NC1=O)C2 [Compound 326],–,1.23,–
CCN1CCN(c2ccc3oc([C@@]4(CN5Cc6ccc(OCC7CC7)c(F)c6C5=O)NC(=O)NC4=O)cc3n2)CC1 [Compound 901],501,–,–
COc1ccc2c(c1F)C(=O)N(C[C@@]1(c3cc4nc(C)c(-c5ccc(N)nc5)cc4o3)NC(=O)NC1=O)C2 [Compound 1919],–,–,"IC50 ([2]; read-out: hWBA (IC50), LPS-stimulated human whole blood, TNF-α by ELISA): 0.308 µM"

Compound,Ki ([1]; read-out: Ki) [nM],"IC50 [2, 3] [µM]",other results
CNC(=O)c1cnc2cc([C@]3(CN4Cc5ccc(OC)cc5C4=O)NC(=O)NC3=O)oc2c1 [Compound 1930],–,–,Ki ([1]; Ki): 0.87 nM
CCN1CCN(C(=NO)c2cnc3cc([C@]4(CN5Cc6ccc(OC)cc6C5=O)NC(=O)NC4=O)oc3c2)CC1 [Compound 1934],–,0.342,–
COCCN1CCN(c2ccc3oc([C@]4(CN5Cc6ccc(OC)cc6C5=O)NC(=O)NC4=O)cc3n2)CC1 [Compound 2160],–,–,"IC50 ([2]; 3.5 h, human whole blood diluted 1:1, LPS stimulated, 3.5 h, TNF-α by ELISA, read-out: hWBA (IC50)): 0.333 µM"
COc1ccc2c(c1)C(=O)N(C[C@@]1(c3cc4nc(NC(=O)c5cccnc5)ccc4o3)NC(=O)NC1=O)C2 [Compound 2313],–,–,"IC50 [2, 4]: 0.537 µM"
COc1ccc2c(c1)C(=O)N(C[C@@]1(c3cc4nc(NS(C)(=O)=O)ccc4o3)NC(=O)NC1=O)C2 [Compound 2315],–,–,"IC50 [2, 4]: 0.189 µM"
CCNC(=O)Nc1ccc2oc([C@]3(CN4Cc5ccc(OC)cc5C4=O)NC(=O)NC3=O)cc2n1 [Compound 2316],–,–,"IC50 [2, 4]: 0.672 µM"
COc1ccc2c(c1)C(=O)N(C[C@@]1(c3cc4c(o3)CCN(S(C)(=O)=O)C4)NC(=O)NC1=O)C2 [Compound 2438],–,–,"IC50 [2, 4]: 0.497 µM"
CCOC(=O)N1CCc2cc([C@]3(CN4Cc5ccc(OC)cc5C4=O)NC(=O)NC3=O)oc2C1 [Compound 2439],–,–,"IC50 [2, 4]: 0.704 µM"
COc1ccc2c(c1)C(=O)N(C[C@@]1(c3cc4c(o3)CCN(C(N)=O)C4)NC(=O)NC1=O)C2 [Compound 2440],–,–,"IC50 [2, 4]: 0.646 µM"
COc1ccc2c(c1)C(=O)N(C[C@@]1(c3cc4c(o3)CCN(C(=O)N(C)C)C4)NC(=O)NC1=O)C2 [Compound 2441],–,–,"IC50 [2, 4]: 0.501 µM"
CCNC(=O)N1CCc2oc([C@]3(CN4Cc5ccc(OC)cc5C4=O)NC(=O)NC3=O)cc2C1 [Compound 2442],–,–,"IC50 [2, 4]: 0.309 µM"
COc1ccc2c(c1)C(=O)N(C[C@@]1(c3cc4c(o3)CCN(C(=O)Nc3cccnc3)C4)NC(=O)NC1=O)C2 [Compound 2443],–,–,"IC50 [2, 4]: ≥ 1000 µM"
COc1ccc2c(c1)C(=O)N(C[C@@]1(c3cc4cnc(C#N)cc4o3)NC(=O)NC1=O)C2 [Compound 2444],–,–,"IC50 [2, 4]: 0.759 µM"
CNC(=O)c1cnc2cc([C@]3(CN4Cc5ccc(OC)cc5C4=O)NC(=O)NC3=O)oc2c1 [Compound 2461],–,–,Ki ([1]; Ki): 0.871 nM
COc1ccc2c(c1)C(=O)N(C[C@@]1(c3cc4ncc(C(=O)NCCN(C)C)cc4o3)NC(=O)NC1=O)C2 [Compound 2465],–,–,"IC50 [2, 4]: 0.8 µM"
COc1ccc2c(c1)C(=O)N(C[C@@]1(c3cc4nc(-c5ccc(S(N)(=O)=O)cc5)ccc4o3)NC(=O)NC1=O)C2 [Compound 2490],–,–,"IC50 [2, 4]: 2.69 µM"
COc1ccc2c(c1F)C(=O)N(C[C@@]1(c3cc4cc5c(cc4o3)C(=O)NCCC5)NC(=O)NC1=O)C2 [Compound 2492],–,–,"IC50 [2, 4]: 0.322 µM"

# Second part, led by results:
Ki ([1]; read-out: Ki) [nM],"IC50 [2, 3] [µM]",Compound,other results
–,1.51,CCN1CCN(c2ccc(O)c(-c3ccc([C@]4(CN5Cc6ccc(OC)cc6C5=O)NC(=O)NC4=O)cc3)n2)CC1 [Compound 902],–
0.41,–,COc1ccc2c(c1F)C(=O)N(C[C@@]1(c3cc4cc(-c5c(C)nn(C)c5C)c(F)cc4o3)NC(=O)NC1=O)C2 [Compound 1182],–
16.4,–,O=C1NC(=O)C(CN2Cc3ccccc3C2=O)(c2ccccc2)N1 (stereo not shown) [Compound 1297],–
–,0.252,COC(=O)NCCNc1nc2cc([C@]3(CN4Cc5ccc(OC)c(F)c5C4=O)NC(=O)NC3=O)oc2cc1F [Compound 1319],–
–,1.38,CCOC(=O)[C@H]1CCC(=O)N1c1ccc2oc([C@]3(CN4Cc5ccc(OC)cc5C4=O)NC(=O)NC3=O)cc2n1 [Compound 1502],–
6.4,–,COc1ccc2c(c1)C(=O)N(C[C@@]1(c3ccc(-c4ccc(F)c(C#N)c4)cc3)NC(=O)NC1=O)C2 [Compound 1506],–
–,2.69,COc1ccc2c(c1)C(=O)N(C[C@@]1(c3cc4nc(-c5ccc(S(N)(=O)=O)cc5)ccc4o3)NC(=O)NC1=O)C2 [Compound 1528],–
–,0.239,COC(=O)CCNc1nc2cc([C@]3(CN4Cc5ccc(OC)c(F)c5C4=O)NC(=O)NC3=O)oc2cc1F [Compound 1921],–
–,0.339,COC(=O)c1ccc2oc([C@]3(CN4Cc5ccc(OC)cc5C4=O)NC(=O)NC3=O)cc2n1 [Compound 1923],–
–,0.8,COc1ccc2c(c1)C(=O)N(C[C@@]1(c3cc4ncc(C(=O)NCCN(C)C)cc4o3)NC(=O)NC1=O)C2 [Compound 1932],–
–,0.657,COCCNC(=O)c1cnc2cc([C@]3(CN4Cc5ccc(OC)cc5C4=O)NC(=O)NC3=O)oc2c1 [Compound 1933],–
–,0.546,COc1ccc2c(c1)C(=O)N(C[C@@]1(c3cc4ncc(C(=NO)N5CCN(c6cnccn6)CC5)cc4o3)NC(=O)NC1=O)C2 [Compound 1935],–
–,0.537,COc1ccc2c(c1)C(=O)N(C[C@@]1(c3cc4nc(NC(=O)c5cccnc5)ccc4o3)NC(=O)NC1=O)C2 [Compound 1947],–
